Test results from US20220274935A1, “PHARMACEUTICAL COMPOSITION FOR PREVENTING OR TREATING BONE DISEASES” (INDUSTRY FOUNDATION OF CHONNAM NATIONAL UNIVERSITY, priority 2019, published 2022).

What was measured:
preosteoclasts = assay: MTT assay for cytotoxicity assessment (cell viability); format: cell-based, mouse; settings: MCSF 30 ng/mL, concentration of 10 uM
Procedure: MTT Assay for Cytotoxicity Assessment
After treatment of preosteoclasts with 35D35 or 35D3 (=PPOA) (1-10 uM), cell viability was evaluated. Specifically, 1×10^4 cells per well were put into a 96-well plate, and only MCSF (30 ng/mL) and PPOA were cultured by day under the indicated concentration conditions. Thereafter, a cell viability assay reagent (DoGen, EZ-3000) was used with 1/10 of the volume of the medium for treatment, and then the cells were incubated at 37° C. for 30 minutes and observed at […]. […] That is, it was confirmed that there was no cytotoxicity.

[1] = test system: hBMP2-induced osteoblast differentiation of precursor cells from mouse skull; assay: ALP staining for analysis of osteoblast differentiation ability; format: cell-based, C57BL/6J mouse; settings: hBMP2 100 ng/ml, 7 days; FIG. 10
Procedure: After collecting cells from C57BL/6J mouse calvara at the age of 3 days, the cells were seeded on a 96-well plate in an amount of 4×10^3 cells per well, and then treated with 100 ng/ml of hBMP2 as a differentiation inducer. Simultaneously with the differentiation inducer treatment, the cells were treated with the 35D35 compound and cultured for 7 days, followed by ALP staining to assess differentiation influence. Specific experimental methods and results are as follows.
Precursor cells isolated from the mouse skull were treated with hBMP2 (Bone morphogenic protein 2, Sino biological, 10426-HNAE, 100 ng/ml) to induce differentiation into osteoblasts. Differentiated osteoblasts could be discriminated through alkaline phosphatase (ALP) staining as an osteoblast-specific protein. When the progenitor cells were treated with hBMP2, each of the 35D35 compounds was also used for treatment, followed by culturing the cells for 7 days while changing the medium every 2 to 3 days. […]
After discarding the ethanol, the remaining product was washed with HBSS, followed by adding a NBT solution (Sigma, B1911) in an amount of 100 μl per well and staining for 15 minutes. […] After ALP staining, a degree of color development was measured using Image J software, and then graphed for comparison.

[2] = test system: RANKL-induced F-actin belt formation in BMM; assay: F-actin ring (belt) formation ability of differentiated osteoclasts; format: cell-based, mouse
Procedure: In order to confirm the activity of differentiated osteoclasts, F-actin ring formation ability was measured. Specifically, BMM was seeded on a 12 mm cover glass with or without compounds (35D3: 6 μM, 35D5 and 35D35: 2 μM), followed by M-CSF and LANKL treatment. After the osteoclasts were formed in the control, the osteoclasts were fixed in 4.0% paraformaldehyde for 15 minutes, and then incubated in 5% FBS and blocked for about 60 minutes. After washing with PBS, rhodamine-conjugated phalloidin (1:40) was added to each well to visualize a F-actin belt. After 20 minutes, the cells were incubated along with a DAPI (1:5000) solution for 5 minutes. After washing three times with PBS, cells were observed using a fluorescence microscope.
A F-actin size was measured using Image J.

[3] = test system: bone resorption ability of osteoclasts (BMM); assay: Bone resorption assay kit (fluoresceinamine-labeled calcium phosphate plate); format: cell-based, mouse; settings: 0.5 uM, 6 days, compared to control cells not treated (Ctrl); FIG. 7
Procedure: In addition, the bone resorption ability of 35D35 was measured using a bone resorption assay kit (Cosmo Bio, CSR-BRA). Specifically, BMM was seeded on a fluoresceinamine-labeled calcium phosphate plate, followed by 35D35 treatment with various doses. After 6 days, a fluorescence intensity was measured at absorption and emission wavelengths of 485 nm and 535 nm, respectively, using a fluorescent reader. Further, a resorption pit area was calculated using Image J. As a result, it was confirmed that the bone resorption ability was reduced by about 10% in the cells treated with 0.5 uM of 35D35, as compared to the control cells not treated with the compound (Ctrl) (see FIG. 7, scale bar=200 μm, “Con”=M-CSF+RANKL treatment group, “M”=M-CSF treatment group).

[4] = test system: ovariectomized mouse model (OVX); assay: Ovariectomized (OVX) mouse osteoporosis model, tibia micro-computed tomography; format: in vivo; settings: OVX mice, intraperitoneal once every two days, after 4 weeks, microcomputer tomography; FIGS. 11 to 14
Procedure: An ovariectomized mouse model (OVX, ovariectomized mouse) with osteoporosis due to estrogen deficiency after ovariectomy in 8-week-old female mouse were prepared. Compounds (35D35, 35D5, and 35D3), respectively, were injected intraperitoneally once every two days to the ovariectomized mouse model. After 4 weeks, the tibia of each mouse was analyzed for bone density by microcomputer tomography.
FIGS. 11 to 14 show the micro-computed tomography results (Sham: the control in which the ovaries were not removed) and graphs for analysis of the micro-computed tomography results with regard to the tibia of the mouse models (*P<0.05, **P<0.01, and ***P<0.001 vs. the control, OVX. BMD: trabecular bone mineral density).

[5] = test system: osteoclast differentiation of monocytes isolated from the mouse bone marrow; assay: Osteoclast differentiation inhibitory ability through TRAP staining and assay (RANKL-induced monocytes); format: cell-based
Procedure: The bone marrow of a 10-week-old female mouse was isolated from the hip bone, femur and tibia, followed by culturing the same in α-MEM medium (Gibco, 12561-056, 10% fetal bovine serum, 1% penicillin/streptomycin) containing macrophage colony stimulating factor (M-CSF, PeproTech, 315-02, 30 ng/ml) for 3 days in order to isolate only monocytes. The isolated monocytes were treated with receptor activator of nuclear factor kappa B ligand (RANKL, PeproTech, 315-11, 50 ng/ml) to induce osteoclast differentiation. During RANKL treatment, each compound (35D35, 35D5, 35D3, and 35D8) was used for treatment and the cells were cultured for 3 or 5 days so as to confirm the degree of osteoclast differentiation.
1×10^4 monocytes isolated from the mouse bone marrow were put into a 96-well plate and treated with each compound (35D35, 35D5, 35D3, and 35D8) together with RANKL, thereby confirming the effects of each compound on osteoclast differentiation ability. Using the TRAP activity assay kit (Cosmo Bio, PMC-AK04F-COS), the activity of tartrate-resistant acid phosphatase (TRAP) with increased expression during osteoclast differentiation was confirmed. […] After staining, multinuclear cells formed during osteoclast differentiation were confirmed under a microscope. Further, each well was photographed and a differentiation area ratio per total area was determined using Image J software.
Further, the effects of the 35D35 compound having excellent osteoclast production inhibitory ability with respect to osteoclast differentiation period was investigated. Specifically, BMM was divided into 5 groups (Ctrl, Period I to IV), and cultured for 4 days in a culture medium containing 30 ng/mL M-CSF and 50 ng/mL RANKL. BMMs in Period I to IV groups were exposed to 1 μM 35D35 for 24 hours on different days, respectively. After 4 days, the cells of each group were fixed, followed by TRAP staining, and then, the presence of osteoclasts was confirmed.

[6] = test system: osteoclast-specific genes AcP5 (TRAP), NFATc1, DC-STAMP, ATP6v0d2, MMP9 and CTSK; assay: RT-PCR of osteoclast-specific gene mRNA expression; format: cell-based, mouse; settings: 1 μM, compared to the control not treated (Ctrl); FIG. 8
Procedure: (§1) In order to confirm the expression degree of the osteoclast-specific gene, an mRNA expression level was measured by RT-PCR in cells treated with 35D35 (1 μM) and 35D3 (6 μM) compounds, respectively. RNA was isolated from cells differentiated into osteoclasts using an RNA extraction kit, and cDNA was synthesized from 0.5 μg of RNA, which was quantified through a spectrophotometer, using a reverse transcriptase (Takara, RR037 A). Thereafter, QRT-PCR was performed using cDNA synthesized by QuantStudio 3 real-time PCR system (Applied Biosystems). After treating the cells with lysates, immunoblotting was conducted with an anti-Ctsk antibody. At this time, β-actin was used as a loading control.

[7] = test system: Ctsk protein expression in osteoclasts; assay: Immunoblotting with anti-Ctsk antibody; format: cell-based, mouse; settings: 35D35 1 μM compared to 35D3 6 μM; FIG. 9
Procedure: as §1

In the case of `CCC(=O)N1CCN(c2ccccc2NC(=O)COc2ccccc2Cl)CC1` [35D35, 2-(2-chlorophenoxy)-N-[2-(4-propionyl-1-piperazinyl)phenyl]acetamide], the “cytotoxicity (cell viability, apoptosis effects)” value (preosteoclasts) is reported as “apoptosis effects were not exhibited”, the “effect on osteoblast differentiation (ALP staining intensity)” value [1] is reported as “did not affect osteoblasts” and the “decrease of F-actin ring formation ability” value ([2]; 0.5 uM, F-actin size by Image J, FIG. 6) is reported as no less than 50%. For the same molecule, the “inhibition of RANKL-induced F-actin belt formation” value ([2]; 2 μM, FIG. 5) was “excellent effects of inhibiting RANKL-induced F-actin belt formation”, the “reduction of bone resorption ability” value [3] was “about 10%” and the “bone density of tibia vs control (OVX)” value [4] was “higher”. The “bone volume of tibia vs control (OVX)” value [4] was “higher”, the “osteoclast differentiation by exposure period (TRAP staining)” value ([5]; 1 μM for 24 hours on different days, 4 days culture with M-CSF and RANKL, exposure in initial 24 hours, FIG. 4) was “osteoclast differentiation was inhibited for the initial 24 hours” and the “osteoclast differentiation area ratio per total area (TRAP staining, Image J)” value ([5]; concentration of 0.5 uM, FIG. 2) was “effective osteoclast differentiation inhibitory ability”. For the same molecule, the “degree of osteoclast differentiation by TRAP staining” value ([5]; treated together with RANKL, compared to other derivatives, FIG. 1) was “superior osteoclast differentiation inhibitory effects compared to other derivatives”, the “amount of mRNA expression of osteoclast-specific genes AcP5 (TRAP), NFATc1, DC-STAMP, ATP6v0d2, MMP9 and CTSK” value [6] was “decreased” and the Ctsk protein expression [7] was “strongly inhibited even at a low concentration”.
